Entries after “also recorded” stand apart in the source; their conditions may differ.

In experiment [1] the test system is codling moth, Cydia pomonella. Briefly: Confusion test in 100 m^2 test areas in a fruit orchard. The note with it: for confusing effect (males trapped compared with non-treated control square): four dispensing means in the corners, pheromone trap in the center. Format: in vivo. Here is the method:
In another test a confusion test was carried out in 100 m^2 quadratic test areas in a fruit orchard. […] In the respective center of each square, a pheromone trap loaded with the sex pheromone, E8, E10-dodecadien-1-ol of the codling moth, was placed. The confusing effect was calculated as the number of males trapped in the trap compared with the number trapped in a trap in a non-treated control square, i.e. without any behavior antagonist in the respective corner. […] The sex pheromone of the codling moth, the alcohol, is as already mentioned, in commercial use. The inhibiting results are, however, not always satisfying, (Cardé & Minks, 1995, “Control of moth pests by mating disruption. Successes and constraints”, Ann. Rev. Entomol. 49:559-585) in particular not in fruit orchards having high trees and a high population density. […] Probably, the concentration of pheromone from located dispensing means so low there, that the attracting power of the pheromone dominates its confusing effect. Males circulating in the tree tops may also be caught in lower placed traps which indicates a lacking confusing effect. […] Several of the males caught in pheromone traps in such treated squares can be seen flying some meters above the ground and straight into the trap. They never arrived from the top of the trees.

The subject of the next experiment is codling moth. To be noted: cited from earlier work; for previous classification of behavioural role: Hathaway et al. 1974, Witzgall et al. 1996a, El-Sayed et al. 1998.
Experiment [2] has as its system codling moth, Cydia pomonella. In words: Pheromone trap catch test. Format: in vivo. The note with it: for behavioural effect on codling moth in pheromone traps: isomer of the acetate combined with E8,E10-dodecadien-1-ol in traps. The text has this: Pheromone traps were loaded with the pheromone, E8,E10-dodecadien-1-ol of the codling moth, (FIG. 1A). In other traps the alcohol was combined with the corresponding acetate (FIG. 1B). At a blend of 20% of the acetate the catch decreased to ⅛ (dark column).

A further experiment has as its system C. pomonella males. In words: Wind tunnel experiments, male attraction. The note with it: codlemone 10 pg/min; E8,Z10-dodecadien-1-ol added at 3% by weight or E8,E10-dodecadienyl acetate at 1% by weight; n=60. Format: in vivo, Cydia pomonella. The text has this:
Tests were done in a wind tunnel with a flight section of 63 by 90 by 200 cm. Dilutions of synthetic compounds in redistilled ethanol were released from an ultrasound evaporator (Gödde et al. 1999). A motor-driven syringe delivered pheromone solutions in ethanol, through micro-tubing, to a glass capillary tube with a 40 μm tip. A piezo-ceramic disc vibrates the tip of the capillary tube at 100-140 kHz, and the pheromone solution evaporates within a few cm of the tip of the capillary.
The main compound codlemone, E8,E10-dodecadien-1-ol, was applied at a rate of 10 pg/min, E8,Z10-dodecadien-1-ol was added at 3% by weight (FIG. 2), E8,E10-dodecadienyl acetate was added at 1% by weight (FIG. 3).
Test sessions started 1 h after lights off and lasted 3 to 4 h. Two-day-old males were placed individually in glass tubes (15 by 2.5 cm) stoppered with gauze, 15 min prior to testing. Males were released individually and were allowed 2 min to respond. Treatments were tested on 4 days with 15 males/day (n=60).
The sequence of male behaviours elicited by perception of sex pheromone includes activation from rest and taking flight, upwind-oriented flight towards the pheromone source, landing at the pheromone source, and display of courtship behaviors close to the source (walking while wingfanning) (FIGS. 2 and 3). These behaviors are followed by mating, if the pheromone source is a calling female.

Regarding `C/C=C/C=C/CCCCCCCO` [E8,E10-dodecadien-1-ol], the “confusing effect (males trapped compared with non-treated control square)” value in experiment [1] is recorded as “strong confusing effect”. Besides, the “observation of males in the tree tops of treated squares” value in experiment [1] (fruit orchards having high trees and a high population density) is on record as “males are attracted to the tree tops”. Further, the “attraction of the codling moth by geometric isomers of the alcohol” value in the experiment on codling moth (Roelofs et al (1972)) was “very attractive”.

As to `C/C=C/C=C/CCCCCCCOC(C)=O` [E8,E10-dodecadien-1-yl acetate], in experiment [2] (alcohol combined with the acetate, blend of 20% of the acetate), the “catch in pheromone traps, decrease relative to E8,E10-dodecadien-1-ol alone” value is listed as “⅛”. For the same compound, in experiment [2], the “behavioural effect on codling moth in pheromone traps” value (shortened to “behavioural effect on codling moth”) was “behaviour antagonist”. Besides, the “confusing effect (males trapped compared with non-treated control square)” value in experiment [1] is on record as “strong confusing effect”. In the experiment with C. pomonella males, the “male attraction and close range behaviours at the pheromone source, compared to E8,E10-dodecadien-1-ol alone” value is “enhances male attraction and close range behaviours; also recorded: acts as an antagonist when present in high amounts, and as a synergist when present in lower amounts”. The “previous classification of behavioural role” value in the experiment on codling moth was “pheromone antagonists”.

As to `C/C=C\C=C\CCCCCCCO` [E8,Z10-dodecadien-1-ol], the “male attraction and close range behaviours at the pheromone source, compared to E8,E10-dodecadien-1-ol alone” value in the experiment with C. pomonella males is “enhances male attraction and close range behaviours”. In the experiment with codling moth, the “previous classification of behavioural role” value is listed as “pheromone antagonists”.

Consider `CC=CC=CCCCCCCCOC(C)=O` [EZ], for which the “behavioural effect on codling moth” value in experiment [2] is listed as “behaviour antagonists”.

With `C/C=C/C=C\CCCCCCCOC(C)=O` [ZE], the “behavioural effect on codling moth” value in experiment [2] is “behaviour antagonists”.

As for `CC=CC=CCCCCCCCOC(C)=O` [ZZ], the “behavioural effect on codling moth” value in experiment [2] (listed as zz-isomer) is recorded as “most powerful of the four isomers”.

Source of the values: patent US6395775B1, “Combating pest insects” (priority 1995, dated 2002).
